From ChEMBL document CHEMBL4118232, “Design, synthesis and biological evaluation of pyrimidine derivatives as novel CDK2 inhibitors that induce apoptosis and cell cycle arrest in breast cancer cells” (Bioorg Med Chem, 2018)
Active and inactive are the calls of the source. The rule behind the calls is not given here.

Columns and labels:
[1] = target: Cyclin-dependent kinase 2/cyclin E1 (Homo sapiens, UniProt P24941); assay: Inhibition of recombinant human CDK2/cyclin E after 40 mins by ADP-Glo reagent based luminescence assay; assay type: protein-complex assay
CDK6/cyclin D3 = CDK6/cyclin D3 (Homo sapiens, UniProt Q00534); assay: Inhibition of recombinant human CDK6/cyclin D3 after 40 mins by ADP-Glo reagent based luminescence assay; assay type: protein-complex assay
MDA-MB-468 [2] = assay: Induction of morphological changes in human MDA-MB-468 cells at 15 uM after 6 to 24 hrs by Hoechst 33258 staining based fluorescence microscopy; assay type: functional, cell-based
MDA-MB-468 [3] = assay: Induction of apoptosis in human MDA-MB-468 cells assessed as viable cells at 15 uM after 24 hrs by Annexin V-FITC/PI staining based flow cytometry (reference value: 91.43%); assay type: functional; conditions: MDA-MB-468, 24 h, read-out: Activity
[4] = target: Cyclin-dependent kinase 2 (Homo sapiens) (UniProt P24941); assay: Inhibition of CDK2 in human MDA-MB-468 cells assessed as decrease in cyclin E phosphorylation at Thr62 residues at 15 uM after 12 to 26 hrs by Western blot analysis; assay type: cell-based
MDA-MB-468 [5] = assay: Induction of apoptosis in human MDA-MB-468 cells assessed as viable cells at 15 uM after 6 hrs by Annexin V-FITC/PI staining based flow cytometry (reference value: 91.43%); assay type: functional; conditions: MDA-MB-468, 6 h, read-out: Activity
MDA-MB-468 [6] = assay: Induction of apoptosis in human MDA-MB-468 cells assessed as necrotic cells at 15 uM after 12 hrs by Annexin V-FITC/PI staining based flow cytometry (reference value: 0.34%); assay type: functional
MDA-MB-468 [7] = assay: Effect on bim level in human CDK2-siRNA MDA-MB-468 cells at 15 uM by Western blot analysis; assay type: functional, cell-based
MDA-MB-468 [8] = assay: Growth inhibition of human MDA-MB-468 cells at 20 uM by MTT assay; assay type: functional, cell-based
MCF7 = assay: Growth inhibition of human MCF7 cells at 20 uM by MTT assay; assay type: functional, cell-based
MDA-MB-468 [9] = assay: Induction of apoptosis in human MDA-MB-468 cells assessed as late apoptotic cells at 15 uM after 12 hrs by Annexin V-FITC/PI staining based flow cytometry (reference value: 2.49%); assay type: functional
MDA-MB-468 [10] = assay: Induction of apoptosis in human MDA-MB-468 cells assessed as viable cells at 15 uM after 12 hrs by Annexin V-FITC/PI staining based flow cytometry (reference value: 91.43%); assay type: functional; conditions: MDA-MB-468, 12 h, read-out: Activity
MDA-MB-468 [11] = assay: Antiproliferative activity against human MDA-MB-468 cells after 48 hrs by MTT assay; assay type: functional, cell-based; conditions: MDA-MB-468, 48 h
MDA-MB-468 [12] = assay: Induction of apoptosis in human MDA-MB-468 cells assessed as necrotic cells at 15 uM after 24 hrs by Annexin V-FITC/PI staining based flow cytometry (reference value: 0.34%); assay type: functional
MDA-MB-468 [13] = assay: Antiproliferative activity against human MDA-MB-468 cells after 72 hrs by MTT assay; assay type: functional, cell-based; conditions: MDA-MB-468, 72 h
786-0 = assay: Growth inhibition of human 786-O cells at 20 uM by MTT assay; assay type: functional, cell-based
MDA-MB-468 [14] = assay: Induction of apoptosis in human MDA-MB-468 cells assessed as late apoptotic cells at 15 uM after 24 hrs by Annexin V-FITC/PI staining based flow cytometry (reference value: 2.49%); assay type: functional
[15] = target: Cyclin-dependent kinase 4/cyclin D1 (Homo sapiens, UniProt P11802); assay: Inhibition of recombinant human CDK4/cyclin D1 after 40 mins by ADP-Glo reagent based luminescence assay; assay type: protein-complex assay
MDA-MB-468 [16] = assay: Induction of apoptosis in human MDA-MB-468 cells assessed as necrotic cells at 15 uM after 6 hrs by Annexin V-FITC/PI staining based flow cytometry (reference value: 0.34%); assay type: functional
[17] = target: Cyclin-dependent kinase 2 (Homo sapiens) (UniProt P24941); assay: Inhibition of CDK2 in human MDA-MB-468 cells assessed as increase in cleaved caspase 3 expression level at 15 uM measured up to 36 hrs by Western blot analysis; assay type: cell-based
HepG2 = assay: Growth inhibition of human HepG2 cells at 20 uM by MTT assay; assay type: functional, cell-based
WM 266-4 = assay: Growth inhibition of human WM266.4 cells at 20 uM by MTT assay; assay type: functional, cell-based
MDA-MB-468 [18] = assay: Effect on cyclin E level in human CDK2-siRNA MDA-MB-468 cells at 15 uM by Western blot analysis; assay type: functional, cell-based
MDA-MB-468 [19] = assay: Induction of apoptosis in human MDA-MB-468 cells assessed as early apoptotic cells at 15 uM after 6 hrs by Annexin V-FITC/PI staining based flow cytometry (reference value: 5.74%); assay type: functional
MDA-MB-468 [20] = assay: Cell cycle arrest in human MDA-MB-468 cells assessed as accumulation at G1 phase at 15 uM after 24 hrs by propidium iodide staining based flow cytometry (reference value: 46.38%); assay type: functional
[21] = target: Cyclin-dependent kinase 2 (Homo sapiens) (UniProt P24941); assay: Inhibition of CDK2 in human MDA-MB-468 cells assessed as increase in bim expression level at 15 uM measured up to 36 hrs by Western blot analysis; assay type: cell-based
[22] = target: Cyclin-dependent kinase 2 (Homo sapiens) (UniProt P24941); assay: Inhibition of CDK2 in human MDA-MB-468 cells assessed as decrease in CDK2 phosphorylation at […] residues at 15 uM after 12 to 26 hrs by Western blot analysis; assay type: cell-based
[23] = target: Cyclin-dependent kinase 2 (Homo sapiens) (UniProt P24941); assay: Inhibition of CDK2 in human MDA-MB-468 cells assessed as increase in bax expression level at 15 uM measured up to 36 hrs by Western blot analysis; assay type: cell-based
MDA-MB-468 [24] = assay: Induction of apoptosis in human MDA-MB-468 cells assessed as early apoptotic cells at 15 uM after 12 hrs by Annexin V-FITC/PI staining based flow cytometry (reference value: 5.74%); assay type: functional
MDA-MB-231 = assay: Growth inhibition of human MDA-MB-231 cells at 20 uM by MTT assay; assay type: functional, cell-based
MDA-MB-468 [25] = assay: Antiproliferative activity against human MDA-MB-468 cells after 24 hrs by MTT assay; assay type: functional, cell-based; conditions: MDA-MB-468, 24 h
MDA-MB-468 [26] = assay: Induction of apoptosis in human MDA-MB-468 cells assessed as late apoptotic cells at 15 uM after 6 hrs by Annexin V-FITC/PI staining based flow cytometry (reference value: 2.49%); assay type: functional
MDA-MB-468 [27] = assay: Induction of apoptosis in human MDA-MB-468 cells assessed as early apoptotic cells at 15 uM after 24 hrs by Annexin V-FITC/PI staining based flow cytometry (reference value: 5.74%); assay type: functional
MDA-MB-468 [28] = assay: Cell cycle arrest in human MDA-MB-468 cells assessed as accumulation at S phase at 15 uM after 24 hrs by propidium iodide staining based flow cytometry (reference value: 39.46%); assay type: functional
[29] = target: Cyclin-dependent kinase 2 (Homo sapiens) (UniProt P24941); assay: Inhibition of CDK2 in human MDA-MB-468 cells assessed as decrease in caspase 3 expression level at 15 uM measured up to 36 hrs by Western blot analysis; assay type: cell-based
MDA-MB-468 [30] = assay: Cell cycle arrest in human MDA-MB-468 cells assessed as accumulation at G2 phase at 15 uM after 24 hrs by propidium iodide staining based flow cytometry (reference value: 14.16%); assay type: functional
[31] = target: Cyclin-dependent kinase 2 (Homo sapiens) (UniProt P24941); assay: Inhibition of CDK2 in human MDA-MB-468 cells assessed as increase in cleaved PARP expression level at 15 uM measured up to 36 hrs by Western blot analysis; assay type: cell-based
CDK7/Cyclin H/MNAT1 = CDK7/Cyclin H/MNAT1 (Homo sapiens, UniProt P50613); assay: Inhibition of recombinant human CDK7/cyclin H/MNAT1 after 40 mins by ADP-Glo reagent based luminescence assay; assay type: protein-complex assay
CDK7/Cyclin H/MNAT1, sequence (P51946 whole entry): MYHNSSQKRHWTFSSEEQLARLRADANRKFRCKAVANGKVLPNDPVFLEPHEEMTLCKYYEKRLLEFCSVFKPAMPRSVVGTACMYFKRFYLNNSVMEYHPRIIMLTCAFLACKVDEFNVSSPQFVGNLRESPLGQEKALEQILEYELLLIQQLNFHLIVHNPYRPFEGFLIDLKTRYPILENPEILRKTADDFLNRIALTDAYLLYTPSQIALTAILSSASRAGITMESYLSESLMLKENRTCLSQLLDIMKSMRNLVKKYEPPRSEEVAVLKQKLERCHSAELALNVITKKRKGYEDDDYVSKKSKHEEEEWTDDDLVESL
CDK7/Cyclin H/MNAT1, sequence (P50613 whole entry): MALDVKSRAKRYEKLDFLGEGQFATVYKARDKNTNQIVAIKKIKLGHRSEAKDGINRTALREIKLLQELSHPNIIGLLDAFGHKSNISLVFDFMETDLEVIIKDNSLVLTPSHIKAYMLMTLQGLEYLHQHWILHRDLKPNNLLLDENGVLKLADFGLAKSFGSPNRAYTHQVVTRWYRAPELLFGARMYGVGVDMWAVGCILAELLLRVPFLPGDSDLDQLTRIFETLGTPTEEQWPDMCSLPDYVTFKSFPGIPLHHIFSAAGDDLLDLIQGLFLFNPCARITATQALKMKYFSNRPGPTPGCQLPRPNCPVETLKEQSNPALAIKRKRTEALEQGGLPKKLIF
CDK7/Cyclin H/MNAT1, sequence (P51948 whole entry, further chain): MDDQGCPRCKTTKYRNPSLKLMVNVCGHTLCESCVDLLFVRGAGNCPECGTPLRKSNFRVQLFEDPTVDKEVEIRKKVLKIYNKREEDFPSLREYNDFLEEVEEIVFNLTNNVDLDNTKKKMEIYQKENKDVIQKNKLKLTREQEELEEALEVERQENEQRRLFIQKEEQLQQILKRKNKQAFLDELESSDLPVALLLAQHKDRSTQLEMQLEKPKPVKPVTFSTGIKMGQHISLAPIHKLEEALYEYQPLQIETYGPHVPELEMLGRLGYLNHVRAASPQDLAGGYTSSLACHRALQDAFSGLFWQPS

Cyclin-dependent kinase 4/cyclin D1, sequence (P11802 whole entry): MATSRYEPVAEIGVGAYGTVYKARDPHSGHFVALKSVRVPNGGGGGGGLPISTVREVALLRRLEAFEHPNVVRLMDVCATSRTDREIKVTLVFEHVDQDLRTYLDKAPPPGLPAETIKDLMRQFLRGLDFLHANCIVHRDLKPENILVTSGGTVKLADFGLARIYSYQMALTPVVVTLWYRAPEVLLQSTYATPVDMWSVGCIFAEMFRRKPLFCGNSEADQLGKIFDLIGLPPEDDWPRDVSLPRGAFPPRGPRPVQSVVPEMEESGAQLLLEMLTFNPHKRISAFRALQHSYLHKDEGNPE
Cyclin-dependent kinase 4/cyclin D1, sequence (P24385 whole entry, further chain): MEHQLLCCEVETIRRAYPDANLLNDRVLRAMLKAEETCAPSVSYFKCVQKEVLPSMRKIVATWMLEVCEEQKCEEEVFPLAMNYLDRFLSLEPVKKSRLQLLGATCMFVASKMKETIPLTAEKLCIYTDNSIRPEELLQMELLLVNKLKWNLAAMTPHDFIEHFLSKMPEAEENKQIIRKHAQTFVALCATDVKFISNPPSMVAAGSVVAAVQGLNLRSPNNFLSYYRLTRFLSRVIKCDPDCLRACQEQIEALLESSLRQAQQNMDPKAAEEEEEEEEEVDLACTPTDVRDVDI
CDK6/cyclin D3, sequence (P30281 whole entry): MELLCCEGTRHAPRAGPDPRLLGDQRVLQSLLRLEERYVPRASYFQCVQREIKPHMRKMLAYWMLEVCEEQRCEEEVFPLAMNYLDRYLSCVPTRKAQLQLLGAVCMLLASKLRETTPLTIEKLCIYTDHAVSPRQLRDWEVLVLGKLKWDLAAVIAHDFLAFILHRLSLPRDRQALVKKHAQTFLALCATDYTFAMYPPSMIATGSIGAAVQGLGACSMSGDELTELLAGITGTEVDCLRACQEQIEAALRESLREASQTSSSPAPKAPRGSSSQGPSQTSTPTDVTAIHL
CDK6/cyclin D3, sequence (Q00534 whole entry): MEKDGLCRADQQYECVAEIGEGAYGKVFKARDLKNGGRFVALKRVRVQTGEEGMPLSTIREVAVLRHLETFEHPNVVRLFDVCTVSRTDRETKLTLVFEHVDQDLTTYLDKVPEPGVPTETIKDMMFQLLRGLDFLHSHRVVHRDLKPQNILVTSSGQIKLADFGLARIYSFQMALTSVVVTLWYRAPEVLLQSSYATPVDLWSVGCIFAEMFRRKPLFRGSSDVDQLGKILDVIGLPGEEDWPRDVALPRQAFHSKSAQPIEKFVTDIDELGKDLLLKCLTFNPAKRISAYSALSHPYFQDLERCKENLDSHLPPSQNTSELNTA

COc1ccc(Nc2ccnc(N3CCC(NC(=O)c4cccc(C)c4)CC3)n2)cc1
IC50 [1]: 474 nM

COc1ccc(C(=O)NC2CCN(c3nccc(Nc4ccccc4C)n3)CC2)cc1
IC50 [1]: 286 nM

Cc1ccc(C(=O)NC2CCN(c3nccc(Nc4ccccc4C)n3)CC2)cc1
IC50 [1]: 567 nM

Cc1ccccc1Nc1ccnc(N2CCC(NC(=O)c3cccc(Cl)c3)CC2)n1
IC50 [1]: 501 nM

Cc1ccc(C(=O)NC2CCN(c3nc(C)cc(Nc4ccc(F)cc4)n3)CC2)cc1
IC50 [1]: 288 nM

COc1ccc(Nc2ccnc(N3CCC(NC(=O)c4ccc(C)cc4)CC3)n2)cc1
IC50 [1]: 378 nM

COc1ccc(C(=O)NC2CCN(c3nc(C)cc(Nc4ccc(F)cc4)n3)CC2)cc1
IC50 [1]: 54.2 nM

Cc1cc(Nc2ccc(F)cc2)nc(N2CCC(NC(=O)c3ccccc3F)CC2)n1
IC50 [1]: 205 nM

Cc1ccccc1Nc1ccnc(N2CCC(NC(=O)c3ccccc3F)CC2)n1
IC50 [1]: 399 nM

Cc1cc(Nc2ccc(F)cc2)nc(N2CCC(NC(=O)c3ccc(F)cc3)CC2)n1
IC50 [1]: 153 nM

COc1ccc(Nc2ccnc(N3CCC(NC(=O)c4ccc(OC)cc4)CC3)n2)cc1
IC50 [1]: 276 nM

Cc1cccc(C(=O)NC2CCN(c3nccc(Nc4ccc(F)cc4)n3)CC2)c1
IC50 [1]: 386 nM

O=C(NC1CCN(c2nccc(Nc3ccc(F)cc3)n2)CC1)c1ccc(F)cc1
IC50 [1]: 151 nM

O=C(NC1CCN(c2nccc(Nc3ccc(F)cc3)n2)CC1)c1cccc(Cl)c1
IC50 [1]: 206 nM

Cc1cc(Nc2ccc(F)cc2)nc(N2CCC(NC(=O)c3cccc(Cl)c3)CC2)n1
IC50 [1]: 287 nM

O=C(NC1CCN(c2nccc(Nc3ccc(F)cc3)n2)CC1)c1ccccc1F
IC50 [1]: 241 nM

COc1ccc(Nc2ccnc(N3CCC(NC(=O)c4cccc(Cl)c4)CC3)n2)cc1
IC50 [1]: 313 nM

Cc1ccc(C(=O)NC2CCN(c3nccc(Nc4ccc(F)cc4)n3)CC2)cc1
IC50 [1]: 276 nM

Cc1cccc(C(=O)NC2CCN(c3nccc(Nc4ccccc4C)n3)CC2)c1
IC50 [1]: 288 nM

Cc1cccc(C(=O)NC2CCN(c3nc(C)cc(Nc4ccc(F)cc4)n3)CC2)c1
IC50 [1]: 380 nM

COc1ccc(C(=O)NC2CCN(c3nccc(Nc4ccc(F)cc4)n3)CC2)cc1
IC50 (CDK6/cyclin D3): 54.3 to 73.7 nM
Activity (MDA-MB-468 [2]): Active
viability at 15 µM (MDA-MB-468 [3]): 65.8%
inhibition [4]: Active
viability at 15 µM (MDA-MB-468 [5]): 89.2%
Activity (MDA-MB-468 [6]): 2.73%
Activity (MDA-MB-468 [7]): inactive
IC50 [1]: 45.8 to 54.3 nM
growth inhibition (GI) (MDA-MB-468 [8]): Active
growth inhibition (GI) (MCF7): Active
Activity (MDA-MB-468 [9]): 16.82%
viability at 15 µM (MDA-MB-468 [10]): 76.6%
IC50 (MDA-MB-468 [11]): 8960 nM
Activity (MDA-MB-468 [12]): 3.46%
IC50 (MDA-MB-468 [13]): 5740 nM
growth inhibition (GI) (786-0): Active
Activity (MDA-MB-468 [14]): 24.68%
IC50 [15]: 278 nM
Activity (MDA-MB-468 [16]): 0.87%
inhibition [17]: Active
growth inhibition (GI) (HepG2): Active
growth inhibition (GI) (WM 266-4): Active
Activity (MDA-MB-468 [18]): inactive
Activity (MDA-MB-468 [19]): 4.62%
Activity (MDA-MB-468 [20]): 65.11%
inhibition [21]: Active
inhibition [22]: Active
inhibition [23]: Active
Activity (MDA-MB-468 [24]): 3.82%
growth inhibition (GI) (MDA-MB-231): Active
IC50 (MDA-MB-468 [25]): 14300 nM
Activity (MDA-MB-468 [26]): 5.28%
Activity (MDA-MB-468 [27]): 6.02%
Activity (MDA-MB-468 [28]): 25.25%
inhibition [29]: Active
Activity (MDA-MB-468 [30]): 9.64%
inhibition [31]: Active
IC50 (CDK7/Cyclin H/MNAT1): 89.8 nM

Cc1ccccc1Nc1ccnc(N2CCC(NC(=O)c3ccc(F)cc3)CC2)n1
IC50 [1]: 459 nM

COc1ccc(Nc2ccnc(N3CCC(NC(=O)c4ccc(F)cc4)CC3)n2)cc1
IC50 [1]: 405 nM

COc1ccc(Nc2ccnc(N3CCC(NC(=O)c4ccccc4F)CC3)n2)cc1
IC50 [1]: 280 nM
